Source: the NIST ThermoML archive (doi:10.1021/je201211f)

Key:
[1] = 298.15 K, 101.33 kPa, Liquid; for viscosity: Capillary tube (Ostwald / Ubbelohde) method; for mass density: Vibrating tube method
[2] = refractive index (Na D-line) (dimensionless); conditions: 298.15 K; 101.33 kPa; Liquid; Standard Abbe refractometry
[3] = xn = mol fraction of the nth substance listed; conditions: 101 kPa, Liquid; for mass density: Vibrating tube method; for viscosity: Capillary tube (Ostwald / Ubbelohde) method
[4] = refractive index (Na D-line) (dimensionless); xn = mol fraction of the nth substance listed; conditions: 298.15 K, 101 kPa, Liquid

CC(=O)O [acetic acid]
Conditions | mass density [kg/m3] | refractive index | viscosity [mPa·s]
[1] | 1043.58 | – | 1.127
[2] | – | 1.3698 | –

ClC=C(Cl)Cl [trichloroethene]
Conditions | mass density [kg/m3] | refractive index | viscosity [mPa·s]
[1] | 1455.53 | – | 0.582
[2] | – | 1.475 | –

ClC=C(Cl)Cl [trichloroethene] + Cc1ccc(C)cc1
Conditions | mass density [kg/m3] | refractive index | viscosity [mPa·s]
[3], 293.15 K, x1 = 0.0843 | 899.17 | – | –
[3], 293.15 K, x1 = 0.1806 | 944.97 | – | –
[3], 293.15 K, x1 = 0.2528 | 980.96 | – | –
[3], 293.15 K, x1 = 0.3239 | 1017.91 | – | –
[3], 293.15 K, x1 = 0.403 | 1060.83 | – | –
[3], 293.15 K, x1 = 0.49 | 1110.44 | – | –
[3], 293.15 K, x1 = 0.5689 | 1157.79 | – | –
[3], 293.15 K, x1 = 0.6381 | 1201.31 | – | –
[3], 293.15 K, x1 = 0.7202 | 1255.5 | – | –
[3], 293.15 K, x1 = 0.7975 | 1309.15 | – | –
[3], 293.15 K, x1 = 0.8925 | 1379.16 | – | –
[3], 293.15 K, x1 = 0.9582 | 1430.28 | – | –
[3], 298.15 K, x1 = 0.0843 | 894.6 | – | –
[3], 298.15 K, x1 = 0.0897 | – | – | 0.6075
[3], 298.15 K, x1 = 0.154 | – | – | 0.606
[3], 298.15 K, x1 = 0.1806 | 940.12 | – | –
[3], 298.15 K, x1 = 0.2402 | – | – | 0.6043
[3], 298.15 K, x1 = 0.2528 | 975.88 | – | –
[3], 298.15 K, x1 = 0.318 | – | – | 0.6026
[3], 298.15 K, x1 = 0.3239 | 1012.59 | – | –
[3], 298.15 K, x1 = 0.399 | – | – | 0.5999
[3], 298.15 K, x1 = 0.403 | 1055.25 | – | –
[3], 298.15 K, x1 = 0.4801 | – | – | 0.5968
[3], 298.15 K, x1 = 0.49 | 1104.53 | – | –
[3], 298.15 K, x1 = 0.5624 | – | – | 0.594
[3], 298.15 K, x1 = 0.5689 | 1151.57 | – | –
[3], 298.15 K, x1 = 0.6381 | 1194.8 | – | –
[3], 298.15 K, x1 = 0.64 | – | – | 0.5915
[3], 298.15 K, x1 = 0.718 | – | – | 0.5888
[3], 298.15 K, x1 = 0.7202 | 1248.62 | – | –
[3], 298.15 K, x1 = 0.7975 | 1301.88 | – | –
[3], 298.15 K, x1 = 0.8 | – | – | 0.5861
[3], 298.15 K, x1 = 0.8834 | – | – | 0.5834
[3], 298.15 K, x1 = 0.8925 | 1371.4 | – | –
[3], 298.15 K, x1 = 0.9582 | 1422.14 | – | –
[3], 298.15 K, x1 = 0.9632 | – | – | 0.5808
[3], 303.15 K, x1 = 0.0843 | 890.02 | – | –
[3], 303.15 K, x1 = 0.1806 | 935.27 | – | –
[3], 303.15 K, x1 = 0.2528 | 970.8 | – | –
[3], 303.15 K, x1 = 0.3239 | 1007.28 | – | –
[3], 303.15 K, x1 = 0.403 | 1049.65 | – | –
[3], 303.15 K, x1 = 0.49 | 1098.61 | – | –
[3], 303.15 K, x1 = 0.5689 | 1145.35 | – | –
[3], 303.15 K, x1 = 0.6381 | 1188.25 | – | –
[3], 303.15 K, x1 = 0.7202 | 1241.69 | – | –
[3], 303.15 K, x1 = 0.7975 | 1294.56 | – | –
[3], 303.15 K, x1 = 0.8925 | 1363.59 | – | –
[3], 303.15 K, x1 = 0.9582 | 1413.95 | – | –
[4], Standard Abbe refractometry, x1 = 0.0897 | – | 1.4921 | –
[4], Standard Abbe refractometry, x1 = 0.154 | – | 1.4911 | –
[4], Standard Abbe refractometry, x1 = 0.2402 | – | 1.4897 | –
[4], Standard Abbe refractometry, x1 = 0.318 | – | 1.4885 | –
[4], Standard Abbe refractometry, x1 = 0.399 | – | 1.4873 | –
[4], Standard Abbe refractometry, x1 = 0.4801 | – | 1.486 | –
[4], Standard Abbe refractometry, x1 = 0.5624 | – | 1.4844 | –
[4], Standard Abbe refractometry, x1 = 0.64 | – | 1.4829 | –
[4], Standard Abbe refractometry, x1 = 0.721 | – | 1.4811 | –
[4], Standard Abbe refractometry, x1 = 0.7988 | – | 1.4794 | –
[4], Standard Abbe refractometry, x1 = 0.8834 | – | 1.4775 | –
[4], Standard Abbe refractometry, x1 = 0.961 | – | 1.4753 | –

ClC=C(Cl)Cl [trichloroethene] + Cc1cccc(C)c1
[3]
Conditions | mass density, 293.15 K [kg/m3] | mass density, 298.15 K [kg/m3] | mass density, 303.15 K [kg/m3] | viscosity, 298.15 K [mPa·s]
x1 = 0.0494 | 886.2 | 881.77 | 877.34 | –
x1 = 0.0768 | – | – | – | 0.5895
x1 = 0.0796 | 899.93 | 895.43 | 890.91 | –
x1 = 0.1465 | – | – | – | 0.5893
x1 = 0.1531 | 934.34 | 929.62 | 924.88 | –
x1 = 0.23 | 971.87 | 966.92 | 961.95 | –
x1 = 0.2415 | – | – | – | 0.5895
x1 = 0.3097 | 1012.52 | 1007.32 | 1002.09 | –
x1 = 0.3204 | – | – | – | 0.5897
x1 = 0.3935 | – | – | – | 0.5893
x1 = 0.4065 | 1064.66 | 1059.1 | 1053.53 | –
x1 = 0.4841 | 1108.6 | 1102.78 | 1096.93 | –
x1 = 0.496 | – | – | – | 0.5883
x1 = 0.5561 | 1151.33 | 1145.2 | 1139.05 | –
x1 = 0.5613 | – | – | – | 0.5875
x1 = 0.6423 | – | – | – | 0.5863
x1 = 0.6453 | 1206.86 | 1200.35 | 1193.84 | –
x1 = 0.709 | 1248.6 | 1241.79 | 1234.95 | –
x1 = 0.7204 | – | – | – | 0.5851
x1 = 0.7639 | – | – | – | 0.5844
x1 = 0.7989 | 1310.61 | 1303.35 | 1296.06 | –
x1 = 0.8774 | – | – | – | 0.5823
x1 = 0.8937 | 1380.16 | 1372.41 | 1364.61 | –
x1 = 0.9596 | – | – | – | 0.5808
x1 = 0.974 | 1442.88 | 1434.66 | 1426.38 | –

[4]
Conditions | refractive index
x1 = 0.085 | 1.4932
x1 = 0.1622 | 1.4922
x1 = 0.2415 | 1.4908
x1 = 0.3204 | 1.4894
x1 = 0.3935 | 1.488
x1 = 0.496 | 1.4859
x1 = 0.5613 | 1.4845
x1 = 0.6429 | 1.4825
x1 = 0.7226 | 1.4807
x1 = 0.8061 | 1.4789
x1 = 0.8832 | 1.4773
x1 = 0.9596 | 1.4756

ClC=C(Cl)Cl [trichloroethene] + Cc1ccccc1C
[3]
Conditions | mass density, 293.15 K [kg/m3] | mass density, 298.15 K [kg/m3] | mass density, 303.15 K [kg/m3] | viscosity, 298.15 K [mPa·s]
x1 = 0.0721 | – | – | – | 0.7421
x1 = 0.088 | 919.03 | 914.58 | 910.12 | –
x1 = 0.1511 | 948.33 | 943.7 | 939.06 | –
x1 = 0.1615 | – | – | – | 0.725
x1 = 0.2426 | 992.67 | 987.75 | 982.82 | –
x1 = 0.2437 | – | – | – | 0.7095
x1 = 0.3181 | – | – | – | 0.6959
x1 = 0.3249 | 1034.35 | 1029.15 | 1023.95 | –
x1 = 0.3895 | 1068.4 | 1062.98 | 1057.54 | –
x1 = 0.3957 | – | – | – | 0.6808
x1 = 0.4775 | 1116.88 | 1111.15 | 1105.38 | –
x1 = 0.4824 | – | – | – | 0.6644
x1 = 0.5495 | 1158.43 | 1152.41 | 1146.34 | –
x1 = 0.558 | – | – | – | 0.6498
x1 = 0.6346 | – | – | – | 0.6363
x1 = 0.6384 | 1212.22 | 1205.79 | 1199.32 | –
x1 = 0.7132 | 1259.66 | 1252.89 | 1246.08 | –
x1 = 0.7158 | – | – | – | 0.6224
x1 = 0.79 | 1310.86 | 1303.68 | 1296.47 | –
x1 = 0.802 | – | – | – | 0.6081
x1 = 0.8776 | 1372.25 | 1364.6 | 1356.92 | –
x1 = 0.8818 | – | – | – | 0.595
x1 = 0.9559 | – | – | – | 0.5836
x1 = 0.9583 | 1431.95 | 1423.79 | 1415.62 | –

[4]
Conditions | refractive index
x1 = 0.0721 | 1.501
x1 = 0.1615 | 1.499
x1 = 0.2437 | 1.4973
x1 = 0.3075 | 1.4958
x1 = 0.3957 | 1.4936
x1 = 0.4824 | 1.4917
x1 = 0.5643 | 1.4896
x1 = 0.6346 | 1.4875
x1 = 0.7158 | 1.4847
x1 = 0.806 | 1.4813
x1 = 0.8818 | 1.4788
x1 = 0.9637 | 1.4762
